Test results: ChEMBL document CHEMBL1138857, “Quinol-4-ones as steroid A-ring mimetics in nonsteroidal dissociated glucocorticoid agonists” (J Med Chem, 2006)

Key:
HeLa [1] = assay: Activation of MMTV in HeLa cells measured by luciferase activity relative to Dexamethasone; type: functional, Homo sapiens
HeLa [2] = assay: Activation of MMTV in HeLa cells measured by luciferase activity; type: functional, cell-based; details: Homo sapiens
HFF [3] = assay: Induction of aromatase activity in HFF cells assessed as production of beta estradiol by aromatase assay; type: functional, cell-based; details: Homo sapiens
[4] = target: T1, Mineralocorticoid receptor (Homo sapiens, UniProt P08235); assay: Inhibition of tetramethylrhodamine labeled dexamethasone binding to MR by FP assay
T1 sequence (P08235 whole entry): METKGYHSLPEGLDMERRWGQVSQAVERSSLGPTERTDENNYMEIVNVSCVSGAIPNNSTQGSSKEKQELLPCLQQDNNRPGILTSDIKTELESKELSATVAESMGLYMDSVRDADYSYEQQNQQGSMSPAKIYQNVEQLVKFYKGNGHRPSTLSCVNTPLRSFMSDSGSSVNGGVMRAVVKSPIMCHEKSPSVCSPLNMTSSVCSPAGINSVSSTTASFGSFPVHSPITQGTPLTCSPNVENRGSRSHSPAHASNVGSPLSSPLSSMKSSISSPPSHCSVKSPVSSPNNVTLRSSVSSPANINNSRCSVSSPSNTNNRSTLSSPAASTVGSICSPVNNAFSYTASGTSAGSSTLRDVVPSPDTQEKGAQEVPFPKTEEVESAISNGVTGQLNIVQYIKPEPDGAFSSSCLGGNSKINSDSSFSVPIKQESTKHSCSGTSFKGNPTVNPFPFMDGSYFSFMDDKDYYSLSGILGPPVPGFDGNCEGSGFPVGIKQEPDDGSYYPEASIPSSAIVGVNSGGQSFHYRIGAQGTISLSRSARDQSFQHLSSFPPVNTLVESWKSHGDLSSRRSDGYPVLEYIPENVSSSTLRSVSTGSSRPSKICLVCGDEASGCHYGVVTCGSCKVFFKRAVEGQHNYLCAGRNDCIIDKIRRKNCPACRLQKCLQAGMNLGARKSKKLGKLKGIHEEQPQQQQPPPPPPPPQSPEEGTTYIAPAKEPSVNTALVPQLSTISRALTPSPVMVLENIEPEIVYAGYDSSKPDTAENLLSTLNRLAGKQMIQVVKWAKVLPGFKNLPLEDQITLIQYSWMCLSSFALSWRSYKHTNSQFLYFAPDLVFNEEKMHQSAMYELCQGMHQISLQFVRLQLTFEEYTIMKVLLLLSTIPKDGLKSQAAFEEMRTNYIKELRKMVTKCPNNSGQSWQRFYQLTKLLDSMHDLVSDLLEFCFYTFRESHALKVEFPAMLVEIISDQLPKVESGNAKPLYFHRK

HFF [5] = assay: Inhibition of IL1-stimulated IL6 production in HFF cells relative to Dexamethasone; type: functional, Homo sapiens
Glucocorticoid receptor = target: T2, Glucocorticoid receptor (Homo sapiens, UniProt P04150)
T2 sequence (P04150 whole entry): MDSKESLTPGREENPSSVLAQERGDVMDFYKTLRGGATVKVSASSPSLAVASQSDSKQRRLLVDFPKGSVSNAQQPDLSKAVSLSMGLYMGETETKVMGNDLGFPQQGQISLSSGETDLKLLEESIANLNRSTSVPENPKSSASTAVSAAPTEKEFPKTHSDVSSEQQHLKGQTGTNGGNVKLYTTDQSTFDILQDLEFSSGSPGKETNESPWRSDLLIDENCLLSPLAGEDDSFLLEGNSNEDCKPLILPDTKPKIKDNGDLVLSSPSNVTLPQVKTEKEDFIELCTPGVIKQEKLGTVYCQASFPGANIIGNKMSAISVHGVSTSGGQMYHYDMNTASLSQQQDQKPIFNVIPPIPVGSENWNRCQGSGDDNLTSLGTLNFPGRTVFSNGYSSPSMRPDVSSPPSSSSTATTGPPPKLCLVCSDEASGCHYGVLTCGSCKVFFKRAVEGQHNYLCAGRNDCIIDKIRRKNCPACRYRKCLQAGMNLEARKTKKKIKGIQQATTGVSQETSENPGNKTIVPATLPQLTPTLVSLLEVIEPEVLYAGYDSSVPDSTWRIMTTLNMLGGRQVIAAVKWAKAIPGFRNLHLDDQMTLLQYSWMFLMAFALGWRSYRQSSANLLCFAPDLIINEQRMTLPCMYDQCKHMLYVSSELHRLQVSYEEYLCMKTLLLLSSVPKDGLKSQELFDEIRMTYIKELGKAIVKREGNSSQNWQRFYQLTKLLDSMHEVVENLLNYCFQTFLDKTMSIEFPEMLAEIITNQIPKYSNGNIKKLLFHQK

Progesterone receptor = target: T3, Progesterone receptor (Homo sapiens, UniProt P06401); assay: Inhibition of tetramethylrhodamine labeled RU486 binding to PR by FP assay
T3 sequence (P06401 whole entry): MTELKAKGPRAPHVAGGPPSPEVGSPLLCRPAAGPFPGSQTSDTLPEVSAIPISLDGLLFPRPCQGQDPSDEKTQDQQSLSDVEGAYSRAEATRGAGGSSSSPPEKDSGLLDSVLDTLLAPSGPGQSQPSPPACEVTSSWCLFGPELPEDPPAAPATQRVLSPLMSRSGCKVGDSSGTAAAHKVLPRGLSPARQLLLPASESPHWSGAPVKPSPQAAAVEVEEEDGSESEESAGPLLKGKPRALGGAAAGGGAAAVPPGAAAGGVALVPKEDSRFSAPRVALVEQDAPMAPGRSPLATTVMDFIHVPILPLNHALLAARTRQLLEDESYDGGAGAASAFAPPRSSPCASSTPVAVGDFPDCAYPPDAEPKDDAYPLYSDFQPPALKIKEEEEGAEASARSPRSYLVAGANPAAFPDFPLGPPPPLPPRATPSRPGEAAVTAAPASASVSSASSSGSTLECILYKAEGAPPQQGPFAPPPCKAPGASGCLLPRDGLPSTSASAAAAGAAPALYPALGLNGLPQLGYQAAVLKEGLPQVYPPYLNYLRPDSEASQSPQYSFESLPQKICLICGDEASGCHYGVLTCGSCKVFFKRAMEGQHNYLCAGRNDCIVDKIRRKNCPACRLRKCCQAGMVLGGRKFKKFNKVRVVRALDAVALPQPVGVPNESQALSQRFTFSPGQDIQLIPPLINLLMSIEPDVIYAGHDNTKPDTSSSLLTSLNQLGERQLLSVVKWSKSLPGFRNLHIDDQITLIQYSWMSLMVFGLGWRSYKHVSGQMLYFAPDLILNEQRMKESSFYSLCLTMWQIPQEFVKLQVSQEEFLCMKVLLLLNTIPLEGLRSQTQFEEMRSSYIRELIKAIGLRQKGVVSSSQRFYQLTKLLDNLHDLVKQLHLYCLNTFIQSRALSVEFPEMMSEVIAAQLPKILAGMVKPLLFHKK

HFF [6] = assay: Induction of aromatase activity in HFF cells assessed as production of beta estradiol by aromatase assay relative to Dexamethasone; type: functional, Homo sapiens
HFF [7] = assay: Inhibition of IL1-stimulated IL6 production in HFF cells; type: functional, cell-based; details: Homo sapiens
Mus musculus = assay: Inhibition of LPS-stimulated TNFalpha production in BALB/c mouse at 10 mg/kg, po; type: functional

Row | EC50 (HeLa [2]) [nM] | IC50 [4] [nM] | IC50 (Glucocorticoid receptor) [nM] | IC50 (Progesterone receptor) [nM] | Compound | Efficacy (HeLa [1]) [%] | EC50 (HFF [3]) [nM] | Efficacy (HFF [5]) [%] | Efficacy (HFF [6]) [%] | IC50 (HFF [7]) [nM] | inhibition in vivo at 10 mg/kg (Mus musculus) [%]
1 | – | > 2000 | > 2000 | > 2000 | COc1ccc(F)cc1C(C)(C)CC(O)(Cn1ccnc1)C(F)(F)F (centres undefined) | – | – | – | – | – | –
2 | – | > 2000 | 690 | > 2000 | COc1ccc(F)cc1C(C)(C)CC(O)(Cn1cnc(=O)c2ccccc21)C(F)(F)F (centres undefined) | – | – | – | – | – | –
3 | 17 | – | – | > 2000 | C[C@@H]1C[C@H]2[C@@H]3CCC4=CC(=O)C=C[C@]4(C)[C@@]3(F)[C@@H](O)C[C@]2(C)[C@@]1(O)C(=O)CO [DEXAMETHASONE] | – | 1.9 | – | – | 0.51 | –
4 | – | 98 | 4 | 48 | CC(C)(CC(O)(Cn1ccc(=O)c2ccccc21)C(F)(F)F)c1cccc2c1OCC2 (centres undefined) | – | – | 86 | 60 | 11 | 49
5 | – | – | 48 | – | Cc1ccc(F)cc1C(C)(C)CC(O)(Cn1ccc(=O)c2cnccc21)C(F)(F)F (centres undefined) | – | > 2000 | 59 | 14 | 47 | 58
6 | > 2000 | 38 | – | – | Cc1noc(=O)c2ccc(NC(=O)C(O)(CC(C)(C)c3cccc4c3OCC4)C(F)(F)F)cc12 (centres undefined) | 14 | 91 | 80 | 56 | 59 | –
7 | – | 130 | 8 | 22 | COc1ccc(F)cc1C(C)(C)CC(O)(C(=O)Nc1ccc2c(=O)onc(C)c2c1)C(F)(F)F (centres undefined) | – | – | 19 | – | > 2000 | –
8 | – | > 2000 | 1400 | > 2000 | COc1ccc(F)cc1C(C)(C)CC(O)(CN1CCC(=O)CC1)C(F)(F)F (centres undefined) | – | – | – | – | – | –
9 | > 2000 | 1900 | 120 | > 2000 | COc1ccc(F)cc1C(C)(C)CC(O)(Cn1cc(C)c(=O)c(C)c1)C(F)(F)F (centres undefined) | 3 | 170 | 87 | 77 | 53 | –
10 | – | > 2000 | 780 | > 2000 | Cc1ccc(O)cc1C(C)(C)CC(O)(Cn1ccc(=O)c2ccccc21)C(F)(F)F (centres undefined) | – | – | – | – | – | –
11 | – | 160 | 8 | 160 | Cc1ccc(O)c(C(C)(C)CC(O)(Cn2ccc(=O)c3ccccc32)C(F)(F)F)c1 (centres undefined) | – | – | 93 | – | 5.6 | –
12 | > 2000 | 91 | 11 | 525 | COc1ccc(C)c(C(C)(C)CC(O)(Cn2ccc(=O)c3ccccc32)C(F)(F)F)c1 (centres undefined) | 6 | 95 | 86 | 65 | 17 | –
13 | – | 350 | 28 | 106 | CC(C)(CC(O)(Cn1ccc(=O)c2ccccc21)C(F)(F)F)c1ccccc1 (centres undefined) | – | – | 48 | – | 78 | –
14 | – | – | 125 | – | Cc1ccc(F)cc1C(C)(C)CC(O)(Cn1cc(C)c(=O)c(C)c1)C(F)(F)F (centres undefined) | – | > 2000 | 71 | 20 | 70 | 48
15 | > 2000 | 175 | 34 | > 2000 | COc1ccc(F)cc1C(C)(C)CC(O)(Cn1ccc(=O)c2cnccc21)C(F)(F)F (centres undefined) | 1 | – | 72 | 39 | 35 | –
16 | – | > 2000 | > 2000 | > 2000 | COc1ccc(F)cc1C(C)(C)CC(O)(Cn1ccc(=O)cc1)C(F)(F)F (centres undefined) | – | – | – | – | – | –
17 | – | > 2000 | > 2000 | > 2000 | COc1ccc(F)cc1C(C)(C)CC(O)(CN1CCOCC1)C(F)(F)F (centres undefined) | – | – | – | – | – | –
18 | – | 450 | 6 | 555 | CC(C)(CC(O)(Cn1ccc(=O)c2ccccc21)C(F)(F)F)c1ccccc1O (centres undefined) | – | – | 90 | – | 6 | –

Row | Compound | EC50 (HeLa [2]) [nM] | IC50 [4] [nM] | IC50 (Glucocorticoid receptor) [nM] | IC50 (Progesterone receptor) [nM] | Efficacy (HeLa [1]) [%] | EC50 (HFF [3]) [nM] | Efficacy (HFF [5]) [%] | Efficacy (HFF [6]) [%] | IC50 (HFF [7]) [nM] | inhibition in vivo at 10 mg/kg (Mus musculus) [%]
19 | CC(C)(CC(O)(Cn1ccc(=O)c2ccccc21)C(F)(F)F)c1ccc(F)cc1O (centres undefined) | 15 | 880 | 3 | 340 | 35 | 17 | 88 | 82 | – | –
20 | COc1ccc(F)cc1C(C)(C)CC(O)(CN1CCCc2ccccc21)C(F)(F)F (centres undefined) | – | 1600 | 950 | > 2000 | – | – | – | – | – | –
21 | COc1ccc(F)cc1C(C)(C)CC(O)(Cn1ccc(=O)c2ncccc21)C(F)(F)F (centres undefined) | – | 1100 | 77 | > 2000 | – | – | 78 | 41 | 56 | –
22 | COc1ccc(F)cc1C(C)(C)CC(O)(Cn1cnc2ccccc21)C(F)(F)F (centres undefined) | – | 775 | 54 | > 2000 | – | – | 15 | – | > 2000 | –
23 | COc1ccc(F)cc1C(C)(C)CC(O)(Cn1cc(C)nc1C)C(F)(F)F (centres undefined) | – | 620 | 650 | > 2000 | – | – | – | – | – | –
24 | Cc1cn(CC(O)(CC(C)(C)c2cccc3c2OCC3)C(F)(F)F)cc(C)c1=O (centres undefined) | – | – | 34 | – | – | – | 77 | 26 | 39 | 49
25 | COc1ccc(F)cc1C(C)(C)CC(O)(CN1C[C@H](C)O[C@@H](C)C1)C(F)(F)F (some centres undefined) | – | 1500 | 110 | > 2000 | – | – | 41 | – | > 2000 | –
